The values below come from patent US20200325505A1, “FILAMENTOUS FUNGI CAPABLE OF PRODUCING VERY LONG CHAIN FATTY ACIDS” (UT-Battelle, LLC, priority 2019, published 2020).

Where two headings read alike, the source gives them in different places. Residues, ends and D or L forms follow the SMILES beside them.

This data set has as its system Mortierella elongata AG77. Kind of data set: Carbon source utilisation in Biolog 96-well plates, formazan formation after tetrazolium addition. It is filed as cell-based. The settings on record: for Metabolized: Metabolized = more formazan formation than a control containing no carbon source, observed visually at 2 h, 24 h, 148 h; for Carbon sources that Mortierella elongata AG77 can metabolize: summary of Table 3. The protocol:
Two 300 mL volumes of growth medium comprising 1 g/L KH2PO4, 1 g/L MgSO4 7H2O, 0.1 g/L CaCl2, 0.02 g/L FeNaEDTA, 0.1 g/L NaCl, and either 1 g/L NH4NO3 or 20 g/L sucrose were prepared. Acidity was adjusted to 5.5 using NaOH and volumes of growth medium were autoclaved 30 min at 121° C. to sterilize. Aliquots of 200 μL of carbon-free medium or nitrogen-free medium were pipetted into each well of a set of 96-well plates previously prepared with lyophilized putative carbon or nitrogen sources (Biolog Inc., Hayward, Calif.). Inocula were prepared by perforating a culture of Mortierella elongata AG77 grown on 20 g/L potato dextrose agar with a 3 mm diameter cork borer and separating the surface mycelial mat from the solid growth medium using tweezers. Each well was inoculated with one inoculum. Cultures were incubated at 21° C. for 24 hours to allow metabolic changes to stabilize, and then 100 μL of 3 g/L tetrazolium chloride in water was added to each well. Formazan formation was observed visually at 2 h, 24 h, and 148 h.
Conclusions were based on rate and intensity of formazan formation using the 3-4,5-dimethylthiazol-2-yl)-2,5-diphenyltetrazolium bromide (MTT) assay. “Metabolized” indicates more formazan formation than a control containing no carbon source, and “Toxic” indicates less formazan formation than a control containing no carbon source. “Metabolized” and “Toxic” assignments are mutually exclusive. In this example, a compound may be “Metabolized” or “Toxic,” but not both.

Where [1] appears, read: compound as carbon source, Toxic = less formazan formation than a control containing no carbon source.

In the case of `O=C(O)C[C@@H](O)C(=O)O` [D-Malic Acid], the Metabolized entry (compound as carbon source) is recorded as “no”. Under setting [1], the Toxic entry was “no”.
With `OC[C@@H](O)[C@@H](O)[C@H](O)[C@H](O)CO` [D-Mannitol], the Toxic entry was “no”. The Metabolized entry (compound as carbon source) is reported as “no”.
On to `O=C[C@@H](O)[C@@H](O)[C@H](O)[C@H](O)CO` [D-Mannose], for which the Toxic result is “no”. For the same molecule, for the setting “compound as carbon source”, the Metabolized entry is given as “no”.
For `OC[C@H]1O[C@@](CO)(O[C@H]2O[C@H](CO)[C@@H](O)[C@H](O)[C@H]2O)[C@@H](O[C@H]2O[C@H](CO)[C@@H](O)[C@H](O)[C@H]2O)[C@@H]1O` [D-Melezitose], the Metabolized entry (compound as carbon source) is reported as “no”. Under setting [1], the Toxic result is reported as “no”.
`OC[C@H]1O[C@H](OCC2O[C@@H](O)[C@H](O)[C@@H](O)[C@@H]2O)[C@H](O)[C@@H](O)[C@H]1O` (stereo partly drawn) [D-Melibiose]: the Metabolized result (compound as carbon source) is “no”. For the same molecule, the Toxic result under setting [1] is “no”.
As to `O=C(CO)[C@H](O)[C@H](O)[C@H](O)CO` [D-Psicose], the Toxic entry is “no” and the “Carbon sources that Mortierella elongata AG77 can metabolize” value is given as “can metabolize”. Further, the Metabolized result (compound as carbon source) is given as “yes”.
With `OC[C@H]1O[C@H](OC[C@H]2O[C@H](O[C@]3(CO)O[C@H](CO)[C@@H](O)[C@@H]3O)[C@H](O)[C@@H](O)[C@@H]2O)[C@H](O)[C@@H](O)[C@H]1O` [D-Raffinose], the Toxic result is “no” and the “Carbon sources that Mortierella elongata AG77 can metabolize” value is “can metabolize”. The Metabolized result (compound as carbon source) is on record as “yes”.
On to `O=C1O[C@H](CO)[C@@H](O)[C@H]1O` [D-Ribono-1,4-Lactone], for which the Metabolized entry (compound as carbon source) is on record as “no”. For the same molecule, the Toxic entry under setting [1] is “no”.
For `O=C[C@H](O)[C@H](O)[C@H](O)CO` [D-Ribose], the Toxic result is reported as “no”. The Metabolized entry (compound as carbon source) is “no”.
As for `O=C(O)[C@@H](O)[C@@H](O)[C@H](O)[C@@H](O)C(=O)O` [D-Saccharic Acid], the Toxic entry was “no”. Where the note is “compound as carbon source”, the Metabolized entry is “no”.
Turning to `OC[C@@H](O)[C@@H](O)[C@H](O)[C@@H](O)CO` [D-Sorbitol], the Toxic entry is recorded as “no” and the “Carbon sources that Mortierella elongata AG77 can metabolize” value is recorded as “can metabolize”. Besides, the Metabolized result (compound as carbon source) is “yes”.
With `O=C(CO)[C@@H](O)[C@@H](O)[C@H](O)CO` [D-Tagatose], the Toxic result is “no”. In addition, the Metabolized result (compound as carbon source) was “no”.
Turning to `O=C(O)[C@@H](O)[C@H](O)C(=O)O` [D-Tartaric Acid], the Metabolized entry (compound as carbon source) is recorded as “no”.
For the molecule `C[C@H](O)[C@@H](N)C(=O)O` [D-Threonine], the Toxic result was “no” and the “Carbon sources that Mortierella elongata AG77 can metabolize” value is listed as “can metabolize”. Under “compound as carbon source”, the Metabolized entry is reported as “yes”.
For the molecule `OC[C@H]1O[C@H](O[C@H]2O[C@H](CO)[C@@H](O)[C@H](O)[C@H]2O)[C@H](O)[C@@H](O)[C@@H]1O` [D-Trehalose], the “Carbon sources that Mortierella elongata AG77 can metabolize” value was “can metabolize”. Moreover, the Metabolized entry (compound as carbon source) is reported as “yes”. For the same molecule, the Toxic result under setting [1] is given as “no”.
As to `O=C[C@H](O)[C@@H](O)[C@H](O)CO` [D-Xylose], the Toxic result is “no”. Further, where the note is “compound as carbon source”, the Metabolized entry is reported as “no”.
Consider `OC[C@@H](O)[C@H](O)[C@H](O)[C@@H](O)CO` [Dulcitol], for which the Toxic entry was “no”. The Metabolized entry (compound as carbon source) is recorded as “no”.
Take `O=CO` [Formic Acid]: under “compound as carbon source”, the Metabolized result is recorded as “no”. Also, the Toxic entry under setting [1] is “no”.
Regarding `O=C(O)/C=C/C(=O)O` [Fumaric Acid], the Toxic result was “no” and the “Carbon sources that Mortierella elongata AG77 can metabolize” value was “can metabolize”. Moreover, under “compound as carbon source”, the Metabolized entry is reported as “yes”.
As for `OCC(O)CO` [Glycerol], the Toxic entry is on record as “no” and the “Carbon sources that Mortierella elongata AG77 can metabolize” value is “can metabolize”. For the same molecule, under “compound as carbon source”, the Metabolized entry is recorded as “yes”.
As for `O=C(O)CO` [Glycolic Acid], the “Carbon sources that Mortierella elongata AG77 can metabolize” value is “can metabolize”. In addition, the Metabolized result (compound as carbon source) is on record as “yes”. In addition, the Toxic entry under setting [1] is “no”.
On to `NCC(=O)N[C@@H](CC(=O)O)C(=O)O` [Glycyl-L-Aspartic Acid] (H-Gly-Asp-OH), for which the “Carbon sources that Mortierella elongata AG77 can metabolize” value was “can metabolize”. For the same molecule, the Metabolized entry (compound as carbon source) is “yes”. Further, the Toxic entry under setting [1] is recorded as “no”.
For `NCC(=O)N1CCC[C@H]1C(=O)O` [Glycyl-L-Proline] (H-Gly-Pro-OH), the Toxic result is recorded as “no”. The Metabolized result (compound as carbon source) was “no”.
In the case of `O=CC(=O)O` [Glyoxylic Acid], the Metabolized result (compound as carbon source) is “no”.
For `C=C(CC(=O)O)C(=O)O` [Itaconic Acid], where the note is “compound as carbon source”, the Metabolized entry is given as “no”. For the same molecule, the Toxic result under setting [1] is “no”.
As for `C[C@H](N)C(N)=O` [L-Alaninamide], the “Carbon sources that Mortierella elongata AG77 can metabolize” value is on record as “can metabolize”. In addition, the Metabolized entry (compound as carbon source) is “yes”. The Toxic entry under setting [1] is “no”.
As for `O=C[C@H](O)[C@@H](O)[C@@H](O)CO` [L-Arabinose], the Toxic result is “no”. Further, the Metabolized result (compound as carbon source) was “no”.
`OC[C@H](O)C(O)[C@@H](O)CO` [L-Arabitol]: the Metabolized entry (compound as carbon source) was “no”. Under setting [1], the Toxic entry is listed as “no”.
With `C[C@H](O)[C@@H](O)[C@@H](O)[C@H](O)C=O` [L-Fucose], the Metabolized result (compound as carbon source) is reported as “no”. For the same molecule, the Toxic entry under setting [1] is listed as “no”.
On to `O=C1O[C@H]([C@@H](O)CO)[C@@H](O)[C@@H]1O` [L-Galactonic Acid-γ-Lactone], for which the “Carbon sources that Mortierella elongata AG77 can metabolize” value is “can metabolize”. In addition, the Metabolized result (compound as carbon source) is “yes”. The Toxic entry under setting [1] is given as “no”.
For `O=C[C@@H](O)[C@H](O)[C@@H](O)[C@@H](O)CO` [L-Glucose], the Toxic result is “no”. Moreover, the Metabolized entry (compound as carbon source) is “no”.
As to `C[C@H](O)C(=O)O` [L-Lactic Acid], the “Carbon sources that Mortierella elongata AG77 can metabolize” value is recorded as “can metabolize”. The Metabolized result (compound as carbon source) is “yes”. Also, the Toxic entry under setting [1] is reported as “no”.
In the case of `O=C[C@H](O)[C@H](O)[C@@H](O)CO` [L-Lyxose], the Toxic entry is on record as “no”. Further, the Metabolized result (compound as carbon source) is “no”.
Regarding `O=C(O)C[C@H](O)C(=O)O` [L-Malic Acid], the Metabolized entry (compound as carbon source) is given as “no”. Under setting [1], the Toxic result is “no”.
As for `C[C@H](O)[C@H](O)[C@@H](O)[C@@H](O)C=O` [L-Rhamnose], the Metabolized entry (compound as carbon source) is on record as “no”. Besides, the Toxic entry under setting [1] is “no”.
With `O=C(CO)[C@@H](O)[C@H](O)[C@@H](O)CO` [L-Sorbose], the Toxic entry is recorded as “no”. Under “compound as carbon source”, the Metabolized result was “no”.
As to `O=C(O)[C@H](O)[C@@H](O)C(=O)O` [L-Tartaric Acid], the Metabolized entry (compound as carbon source) is recorded as “no”.
Regarding `OC[C@@H](O)[C@@H](O[C@@H]1O[C@H](CO)[C@H](O)[C@H](O)[C@H]1O)[C@H](O)[C@@H](O)CO` [Lactitol], the Toxic entry is reported as “no”. Also, the Metabolized result (compound as carbon source) is on record as “no”.
In the case of `O=C(O)CC(=O)O` [Malonic Acid], for the setting “compound as carbon source”, the Metabolized result is “no”.
For the molecule `OC[C@@H](O)[C@@H](O[C@H]1O[C@H](CO)[C@@H](O)[C@H](O)[C@H]1O)[C@H](O)[C@@H](O)CO` [Maltitol], the Metabolized entry (compound as carbon source) was “no”. Under setting [1], the Toxic entry is given as “no”.
Regarding `OC[C@H]1O[C@H](O[C@H]2[C@H](O)[C@@H](O)[C@H](O)O[C@@H]2CO)[C@H](O)[C@@H](O)[C@@H]1O` [Maltose], the “Carbon sources that Mortierella elongata AG77 can metabolize” value was “can metabolize”. Besides, under “compound as carbon source”, the Metabolized result was “yes”.
`O=C(O)[C@H](O)[C@@H](O)[C@H](O)[C@H](O)CO[C@H]1O[C@H](CO)[C@H](O)[C@H](O)[C@H]1O` [Melibionic Acid]: the Metabolized entry (compound as carbon source) is on record as “no”. Further, under setting [1], the Toxic result is on record as “no”.
As to `COC(=O)C(C)=O` [Methyl Pyruvate], the “Carbon sources that Mortierella elongata AG77 can metabolize” value was “can metabolize”. The Metabolized entry (compound as carbon source) was “yes”. Also, under setting [1], the Toxic result was “no”.
As to `COC(=O)CCC(=O)O` [Mono Methyl Succinate], the Toxic entry is reported as “no”.
As to `O=C(O)[C@@H](O)[C@H](O)[C@H](O)[C@@H](O)C(=O)O` [Mucic Acid], the Toxic result is given as “no”. In addition, the Metabolized result (compound as carbon source) was “no”.
On to `CC(=O)N[C@@H](CO)[C@@H](O)[C@H](O)[C@H](O)CO` [N-Acetyl-D-Glucosaminitol], for which, where the note is “compound as carbon source”, the Metabolized result is “no”. The Toxic result under setting [1] was “no”.
As for `CC(=O)N[C@H]1[C@H]([C@H](O)[C@H](O)CO)OC(O)(C(=O)O)C[C@@H]1O` (stereo partly shown) [N-Acetyl-Neuraminic Acid], the “Carbon sources that Mortierella elongata AG77 can metabolize” value is recorded as “can metabolize”. Moreover, the Metabolized result (compound as carbon source) is on record as “yes”. Moreover, the Toxic result under setting [1] is “no”.
Turning to `CC(=O)N[C@H]1[C@@H](O)[C@H](O)[C@@H](CO)O[C@H]1O` [N-Acetyl-β-D-Mannosamine], the “Carbon sources that Mortierella elongata AG77 can metabolize” value is “can metabolize”. Further, where the note is “compound as carbon source”, the Metabolized result was “yes”. Also, under setting [1], the Toxic result is “no”.
In the case of `O=C(O)C(=O)O` [Oxalic Acid], the Metabolized result (compound as carbon source) is listed as “no”.
`O=C(O)C(=O)C(C(=O)O)C(O)C(=O)O` (stereo not shown) [Oxalomalic Acid]: the Toxic entry is given as “no”. Moreover, the Metabolized entry (compound as carbon source) is listed as “no”.
